Test results: patent US20110028447A1, “INDAZOLE DERIVATIVES” (Pfizer Inc., priority 2008, published 2011)
Read-outs that look alike come from different tables or passages of the source.

Experiments:
human CB1 receptor [1] = target: T1, human CB1 receptor (Homo sapiens, UniProt P21554); experiment: [35S] GTPγS binding on membranes of CHO cells expressing the human CB1 receptor (agonism); assay type: biochemical; set-up: expressed in transfected cells; membrane preparation
Description: Membrane preparation: CHO cells expressing the human CB1 receptor were grown to 80% confluence in Ham's F-12 Nutrient Medium (Invitrogen) containing 10% fetal bovine serum (Invitrogen), 1% pen/strep (Invitogen), 1% Nonessential amino acids (Invitrogen) and 500 μg/ml G418 (Invitrogen). Cells were released from flasks using Cell Dissociation Buffer (Invitrogen). Cells were pelleted by centrifugation at 500×G for 5 minutes. Membranes were prepared by resuspending cells in ice cold Assay Buffer (25 mM Tris pH 7.4, 5 mM EDTA, 5 mM EGTA, Complete Protease Inhibitor (Roche)). Cells were lysed with 12 strokes of a dounce homogenizer. Unlysed cells were pelleted by centrifugation at 500×G for 5 minutes. Membranes were pelleted by centrifugation at 25,000×G for 30 minutes. Membranes were resuspended in TEE, dounced 12 strokes, and pelleted a second time at 25,000×G for 30 minutes. Membrane pellet was resuspended in 50 mM Tris pH 7.4, 100 mM NaCl, 3 mM MgCl2, 0.2 mM EGTA, Complete Protease Inhibitor (Roche). Protein concentration was determined using the Micro-BCA Protein Assay Kit (Pierce) using BSA as a standard. Membranes were frozen and stored at −80 degrees Celsius until use.
GTPγS Binding: 40 μl of test compound was incubated with 20 μl of [^35S] GTPγS (Perkin Elmer) (1250 Ci/millimole) and 140 μl of membrane homogenate (5 μg/well) in polypropylene 96-well plates (Corning). Final reaction conditions were 50 mM Tris pH 7.4, 100 mM NaCl, 3 mM MgCl2, 0.2 mM EGTA, 0.04% BSA. After incubation at 37 degrees Celsius for 45 minutes reactions were harvested by vacuum filtration through Unifilter GF/B-96 filters (Perkin Elmer) using a FilterMate Plate Harvester (Perkin Elmer). Filters were rinsed 4 times with ice cold 50 mM Tris pH 7.4, 3 mM MgCl2, 0.2 mM EGTA and dried at 50 degrees Celsius for at least 30 minutes. 40 μl of Microscint-20 (Perkin Elmer) was added per well, and plates were counted using a Top-Count Microplate Scintillation Counter (Perkin Elmer). Binding data were analyzed and EC50 values were calculated using Graph Pad Prism 4.0 Software.

human CB1 receptor [2] = target: T1, human CB1 receptor; experiment: Human CB1 receptor binding, [3H] CP-55,940 displacement on HEK cell membranes; set-up: expressed in transfected cells; host or cells: HEK cells, doxycycline-induced; membrane preparation
Outline: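 Radioligand displacement: [3H] CP-55,940 at […] final, 1 μg membrane protein per well from HEK cells with tetracycline-inducible human CB1, 60 min at room temperature, pH 7.4 Tris/NaCl/MgCl2/EGTA/BSA buffer. 50 μM WIN-55,212-2 set nonspecific binding; bound label filtered, counted, and fitted for EC50 and Ki values.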

[3] = human CB1, CHO cell membranes, read-out: GTPγS EC50
[4] = GTPγS EC50, human CB1, CHO cell membranes

T1 sequence (P21554 whole entry): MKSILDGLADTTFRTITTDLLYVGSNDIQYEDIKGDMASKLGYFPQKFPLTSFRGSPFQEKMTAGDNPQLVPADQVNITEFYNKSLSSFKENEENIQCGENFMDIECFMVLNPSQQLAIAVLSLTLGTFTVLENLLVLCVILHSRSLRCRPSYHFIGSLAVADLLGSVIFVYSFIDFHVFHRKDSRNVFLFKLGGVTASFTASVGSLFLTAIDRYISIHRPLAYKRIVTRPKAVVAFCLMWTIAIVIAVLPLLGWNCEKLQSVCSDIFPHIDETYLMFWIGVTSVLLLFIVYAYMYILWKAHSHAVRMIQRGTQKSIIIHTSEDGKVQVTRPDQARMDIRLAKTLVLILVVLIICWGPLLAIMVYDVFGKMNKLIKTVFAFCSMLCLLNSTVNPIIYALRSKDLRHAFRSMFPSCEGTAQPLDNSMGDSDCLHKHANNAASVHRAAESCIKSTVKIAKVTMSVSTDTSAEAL

Row | SMILES | EC50 (human CB1 receptor [1]; [3]) | Ki (human CB1 receptor [2]; read-out: CB1 Ki) | EC50 (human CB1 receptor [1]; [4]) | Ki (human CB1 receptor [2]; CB1 Ki)
1 | CC(C)(C)[C@H](NC(=O)c1nn(Cc2ccc(F)cc2)c2ccccc12)C(=O)NCCN1Cc2ncccc2C1=O [Example 500] | 47.4 nM | 10.1 nM |  | 
2 | CC(C)[C@H](NC(=O)c1nn(Cc2ccc(F)cc2)c2ccccc12)C(N)=O [Example 2, N-[(1S)-1-(aminocarbonyl)-2-methylpropyl]-1-(4-fluorobenzyl)-1H-indazole-3-carboxamide] |  |  | 23.2 nM | 0.9 nM
3 | CC(C)NC(=O)CNC(=O)[C@@H](NC(=O)c1nn(Cc2ccc(F)cc2)c2ccccc12)C(C)(C)C [Example 493] |  |  | 9.94 nM | 0.95 nM
4 | CC(C)(C)[C@H](NC(=O)c1nn(Cc2ccc(F)cc2)c2ccccc12)C(=O)NCCc1nnc(C(N)=O)o1 [Example 231] | 5.12 nM | 2.25 nM |  | 
5 | CC(C)(C)[C@H](NC(=O)c1nn(Cc2ccc(F)cc2)c2c(F)cc(Cl)cc12)C(=O)NCC(N)=O [Example 498] |  |  | 38.3 nM | 16.4 nM
6 | Cc1cc2c(C(=O)N[C@H](C(=O)NCCO)C(C)(C)C)nn(Cc3ccc(F)cc3)c2cc1F [Example 511] |  |  | 6.7 nM | 0.68 nM
7 | CC(C)(C)[C@H](NC(=O)c1nn(Cc2ccc(C(F)(F)F)cc2)c2ccccc12)C(N)=O [Example 254] |  |  | 153 nM | 12.3 nM
8 | CC(C)(C)[C@H](NC(=O)c1nn(Cc2ccc(F)cc2)c2c(F)c(F)ccc12)C(=O)NC[C@@H](O)CO [Example 322] |  |  | 109 nM | 8.89 nM
9 | CC(C)(C)[C@H](NC(=O)c1nn(Cc2ccc(F)cc2)c2ccccc12)C(=O)NCCc1nc2ccccc2c(=O)[nH]1 [Example 501] | 16.8 nM | 24.2 nM |  | 
10 | CC(C)(C)[C@H](NC(=O)c1nn(Cc2ccc(F)cc2F)c2ccccc12)C(=O)NCCC(N)=O [Example 472] |  |  | 52.7 nM | 19.6 nM
11 | CC(C)(C)[C@H](NC(=O)c1nn(Cc2ccc(F)cc2)c2ccccc12)C(=O)NCC1CCOCC1 [Example 211] |  |  | 18.3 nM | 3.08 nM
12 | CC(C)(C)[C@H](NC(=O)c1nn(Cc2ccc(F)cc2)c2ccc(Cl)cc12)C(=O)NC1CCC1 [Example 438] |  |  | 20 nM | 10.9 nM
13 | CC(C)(C)[C@H](NC(=O)c1nn(Cc2ccc(F)cc2)c2ccccc12)C(=O)NCc1nc(-c2cnccn2)no1 [Example 418] | 4.07 nM | 0.78 nM |  | 
14 | Cc1nnc(CNC(=O)[C@@H](NC(=O)c2nn(Cc3ccc(F)cc3)c3ccccc23)C(C)(C)C)o1 [Example 126] |  |  | 2.55 nM | 0.97 nM
15 | CC(C)(C)[C@H](NC(=O)c1nn(Cc2ccc(C#N)cc2)c2ccccc12)C(=O)NCCO [Example 69] |  |  | 183 nM | 18.8 nM
16 | COc1cccc(CNC(=O)c2nn(Cc3ccccc3)c3ccccc23)c1 [Example 43] |  |  | 101 nM | 27.1 nM
17 | CC(C)(C)C(NC(=O)c1nn(Cc2ccc(F)cc2)c2ccccc12)C(=O)NCCc1nnc(C2CC2)o1 (stereo not shown) [Example 148] | 32.2 nM | 1.8 nM |  | 
18 | CC(C)(C)C(NC(=O)c1nn(Cc2cccc(F)c2)c2ccccc12)C(N)=O (stereo not shown) [Example 19] |  |  | 20.5 nM | 2.57 nM
19 | CC(C)(C)[C@H](NC(=O)c1nn(Cc2ccc(F)cc2)c2ccccc12)C(=O)NC1CCCOC1 (stereo partly shown) [Example 339] |  |  | 21.6 nM | 5.36 nM
20 | Cc1nnc(CNC(=O)[C@@H](NC(=O)c2nn(Cc3ccc(F)cc3)c3c(F)c(F)ccc23)C(C)(C)C)o1 [Example 329] |  |  | 8 nM | 2.93 nM
21 | CC(C)(C)[C@H](NC(=O)c1nn(Cc2ccc(C#N)cc2)c2ccccc12)C(=O)N1CCOCC1 [Example 243] |  |  | 91.3 nM | 11.3 nM
22 | CC(C)(C)[C@H](NC(=O)c1nn(Cc2ccc(F)c(F)c2)c2ccccc12)C(=O)NCCC(N)=O [Example 473] |  |  | 41.8 nM | 17 nM
23 | CC(C)(C)[C@H](NC(=O)c1nn(Cc2ccc(F)cc2)c2ccccc12)C(=O)N1CCOCC1 [Example 242] |  |  | 3.37 nM | 0.36 nM
24 | CC(C)(C)[C@H](NC(=O)c1nn(Cc2ccc(F)cc2)c2c(F)cc(Cl)cc12)C(=O)NC[C@H](O)CO [Example 496] |  |  | 30.2 nM | 16.5 nM

Row | SMILES | EC50 (human CB1 receptor [1]; [3]) | Ki (human CB1 receptor [2]; read-out: CB1 Ki) | EC50 (human CB1 receptor [1]; [4]) | Ki (human CB1 receptor [2]; CB1 Ki)
25 | CC(C)(C)[C@H](NC(=O)c1nn(Cc2ccc(F)cc2)c2ccccc12)C(=O)N1CCN(S(C)(=O)=O)CC1 [Example 244] | 16.2 nM | 2.42 nM |  | 
26 | CC(C)(C)[C@H](NC(=O)c1nn(Cc2ccc(F)cc2)c2ccccc12)C(=O)N1CC[C@H]1C(N)=O [Example 344] |  |  | 60.2 nM | 10.1 nM
27 | CC(C)(C)C(NC(=O)c1nn(Cc2ccc(F)cc2)c2c(Cl)cccc12)C(=O)NC1CC1 (stereo not shown) [Example 182] |  |  | 2.23 nM | 0.34 nM
28 | CN1CC(CNC(=O)[C@@H](NC(=O)c2nn(Cc3ccc(F)cc3)c3ccccc23)C(C)(C)C)CC1=O (stereo partly shown) [Example 411] | 21.3 nM | 3.73 nM |  | 
29 | CC(C)(C)C(NC(=O)c1nn(Cc2ccc(F)cc2)c2c(F)cccc12)C(=O)NCC(N)=O (stereo not shown) [Example 179] |  |  | 5.41 nM | 0.87 nM
30 | CC(C)(C)C(NC(=O)c1nn(Cc2ccc(C#N)cc2)c2c(Cl)cccc12)C(=O)NCCO (stereo not shown) [Example 199] |  |  | 8.94 nM | 1.32 nM
31 | CC(C)(C)[C@H](NC(=O)c1nn(Cc2ccc(F)cc2)c2ccc(Cl)cc12)C(=O)NCCS(N)(=O)=O [Example 432] |  |  | 101 nM | 15.7 nM
32 | CC(C)(C)[C@H](NC(=O)c1nn(Cc2ccc(F)cc2)c2ccccc12)C(=O)NCc1nn[nH]n1 [Example 218] |  |  | 360 nM | 7.92 nM
33 | CC(C)(C)C(NC(=O)c1nn(Cc2ccc(F)cc2)c2ccccc12)C(=O)NCC(N)=O (stereo not shown) [Example 82] |  |  | 22.1 nM | 1.12 nM
34 | CC(C)(C)[C@H](NC(=O)c1nn(Cc2ccc(C#N)cc2)c2ccccc12)c1nnc(N)o1 [Example 71] | 314 nM | 8.85 nM |  | 
35 | CC(C)(C)[C@H](NC(=O)c1nn(Cc2ccc(F)cc2)c2ccccc12)C(=O)N1CCC(F)CC1 [Example 341] |  |  | 13.9 nM | 3.74 nM
36 | CC(C)(C)[C@H](NC(=O)c1nn(Cc2ccc(F)cc2)c2ccccc12)C(=O)N1CCOC(CO)C1 (stereo partly shown) [Example 249] |  |  | 16.3 nM | 2.51 nM
37 | CC(C)(C)[C@H](NC(=O)c1nn(Cc2ccc(F)cc2)c2ccccc12)C(=O)N1CC(CNS(=O)(=O)C2CC2)C1 [Example 345] | 1.69 nM | 0.61 nM |  | 
38 | CC(C)(C)[C@H](NC(=O)c1nn(Cc2ccc(F)cc2)c2ccccc12)C(=O)NC[C@H](O)CN1CCOCC1 [Example 504] | 132 nM | 21.3 nM |  | 
39 | CC(C)(C)[C@H](NC(=O)c1nn(Cc2ccc(F)cc2)c2ccccc12)C(=O)N1CCN(C(N)=O)CC1 [Example 220] | 3.78 nM | 1.26 nM |  | 
40 | CC(C)(C)[C@H](NC(=O)c1nn(Cc2ccc(F)cc2)c2ccccc12)C(=O)N1CCC[C@H]1C(N)=O [Example 292] |  |  | 19 nM | 5.25 nM
41 | CC(C)NS(=O)(=O)CCNC(=O)[C@@H](NC(=O)c1nn(Cc2ccc(F)cc2)c2ccccc12)C(C)(C)C [Example 395] | 30.8 nM | 41.2 nM |  | 
42 | CC(C)(C)[C@H](NC(=O)c1nn(Cc2ccc(C#N)cc2)c2ccccc12)C(=O)NCCCO [Example 67] |  |  | 827 nM | 46.5 nM
43 | CC(C)(C)[C@H](NC(=O)c1nn(Cc2ccccc2)c2ccc(Br)cc12)C(N)=O [Example 7, N-[(1S)-1-(aminocarbonyl)-2,2-dimethylpropyl]-1-benzyl-5-bromo-1H-indazole-3-carboxamide] |  |  | 12.9 nM | 2.04 nM
44 | CC(C)(C)C(NC(=O)c1nn(Cc2ccc(F)cc2)c2ccccc12)c1nnc(NC(=O)C2CC2)o1 (stereo not shown) [Example 78] | 2.88 nM | 0.59 nM |  | 
45 | CC(C)(C)[C@H](NC(=O)c1nn(Cc2ccc(C#N)cc2)c2c(F)cccc12)C(=O)NCCCO [Example 109] |  |  | 110 nM | 8.14 nM
46 | CC(C)(C)[C@H](NC(=O)c1nn(Cc2ccc(C#N)cc2)c2ccccc12)C(=O)NCCNS(=O)(=O)c1ccc(C#N)cc1 [Example 264] | 103 nM | 6.75 nM |  | 
47 | Cn1cc(CNC(=O)[C@@H](NC(=O)c2nn(Cc3ccc(F)cc3)c3ccccc23)C(C)(C)C)cn1 [Example 423] |  |  | 30.8 nM | 5.19 nM
